Activity calls are given as the source filed them.
Assays:
[1] = molecular target: T1, Serine/threonine-protein phosphatase (Candida dubliniensis (strain CD36 / CBS 7987 / NCPF 3949 / NRRLY-17841) (Yeast), UniProt B9W6M3); assay: calcineurin pathway inhibitors in yeast reporter, dose response, S. cerevisiae, CDRE-lacZ, luminescence, secondary (AID 2388); format: functional, cell-based;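 also: yeast reporter cells carrying a calcineurin-responsive lacZ construct stimulated with calcium chloride; luminescent beta-galactosidase reporter signal in whole cells rather than isolated phosphatase activity; potency for inhibition where a drop in reporter signal means calcineurin blockade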
T1 sequence (B9W6M3 whole entry): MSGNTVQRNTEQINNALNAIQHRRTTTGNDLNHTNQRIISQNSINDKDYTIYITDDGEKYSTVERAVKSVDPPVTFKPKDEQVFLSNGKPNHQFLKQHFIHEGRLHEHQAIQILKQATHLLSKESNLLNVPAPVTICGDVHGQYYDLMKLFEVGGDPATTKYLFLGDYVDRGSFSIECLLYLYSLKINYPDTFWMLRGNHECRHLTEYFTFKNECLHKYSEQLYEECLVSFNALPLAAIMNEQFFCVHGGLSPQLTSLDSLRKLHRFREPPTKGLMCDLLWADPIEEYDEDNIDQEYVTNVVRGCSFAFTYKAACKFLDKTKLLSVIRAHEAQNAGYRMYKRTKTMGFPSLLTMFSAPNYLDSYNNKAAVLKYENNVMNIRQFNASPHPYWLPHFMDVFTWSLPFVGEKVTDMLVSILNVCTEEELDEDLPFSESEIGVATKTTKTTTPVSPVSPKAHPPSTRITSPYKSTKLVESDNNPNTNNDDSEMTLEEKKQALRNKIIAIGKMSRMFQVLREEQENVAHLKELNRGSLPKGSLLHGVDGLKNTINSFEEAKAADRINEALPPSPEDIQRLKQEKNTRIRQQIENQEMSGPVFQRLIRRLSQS

[2] = growth suppression of beta-catenin-knockout colon cells, dose response, cell-based, HCT116, human colon tumor (AID 1045); format: functional;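 also: HCT116 colon tumor cells with beta catenin knocked out; cells exposed to compound for 60 hours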
[3] = growth suppression of PTEN-null colon cells, dose response, cell-based, HCT116 PTEN knockout (AID 1047); format: functional;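 also: HCT116 colon tumor cells with PTEN knocked out; cells exposed to compound for 60 hours before readout; potency for loss of cell viability measured by luminescence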
[4] = test system: Vero; assay: Vero cell cytotoxicity, cytotoxicity control for flavivirus capping enzyme inhibitors (AID 588742); format: functional; conditions: Chlorocebus sabaeus
[5] = test system: INS1; assay: beta cell apoptosis inhibitors, cytokine rescue, dose response, luminescence, retest (AID 449756); format: functional, cell-based; conditions: Rattus norvegicus;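 also: cell death triggered by IL-1 beta plus TNF-alpha plus IFN-gamma mixture; protective hits raise ATP signal compared with cytokine alone wells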
[6] = molecular target: T2, Mannose-6-phosphate isomerase (Homo sapiens, UniProt P34949); assay: human PMI inhibitors, high substrate, primary screen, biochemical, fluorescence intensity, high mannose 6-phosphate (AID 1220)
T2 sequence (P34949 whole entry): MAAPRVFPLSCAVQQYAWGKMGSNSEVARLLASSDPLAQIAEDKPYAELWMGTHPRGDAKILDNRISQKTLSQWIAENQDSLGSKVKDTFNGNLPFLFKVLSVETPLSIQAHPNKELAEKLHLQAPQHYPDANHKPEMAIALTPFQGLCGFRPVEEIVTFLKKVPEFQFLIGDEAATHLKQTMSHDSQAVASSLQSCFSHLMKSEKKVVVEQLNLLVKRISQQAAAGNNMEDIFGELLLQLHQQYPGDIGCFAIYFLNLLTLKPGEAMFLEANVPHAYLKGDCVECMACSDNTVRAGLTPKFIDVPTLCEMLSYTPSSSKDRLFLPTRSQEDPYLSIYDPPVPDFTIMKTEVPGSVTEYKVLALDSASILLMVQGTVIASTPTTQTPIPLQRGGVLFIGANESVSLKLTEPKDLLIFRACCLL

[7] = NIH-3T3 fibroblast cytotoxicity, dose response, cytotoxicity control, cell-based, fluorescence, Alamar Blue, secondary assay (AID 2327); format: functional;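 also: NIH-3T3 mouse fibroblasts cultured with fluconazole at 8 µg/mL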
[8] = molecular target: Peroxisome proliferator-activated receptor gamma/Nuclear receptor coactivator 2 (Homo sapiens, UniProt P37231); assay: (§1) TR-FRET dose response biochemical High Throughput Screening assay for agonists of the steroid receptor coactivator 2 (SRC-2) recruitment by the peroxisome proliferator-activated receptor gamma (PPAR gamma): non-selective agonists. [Related pubchem assays: 1297, 1032 ]; format: functional
[9] = molecular target: T3, Protein RecA (Mycobacterium tuberculosis, UniProt P9WHJ3); assay: Fluorescence Cell-Free Homogeneous Dose Retest to Identify Inhibitors of RecA-Intein Splicing Activity. [Related pubchem assays (depositor defined):AID2097, AID2223, AID489010, AID492950]; format: functional
T3 sequence (P9WHJ3 whole entry): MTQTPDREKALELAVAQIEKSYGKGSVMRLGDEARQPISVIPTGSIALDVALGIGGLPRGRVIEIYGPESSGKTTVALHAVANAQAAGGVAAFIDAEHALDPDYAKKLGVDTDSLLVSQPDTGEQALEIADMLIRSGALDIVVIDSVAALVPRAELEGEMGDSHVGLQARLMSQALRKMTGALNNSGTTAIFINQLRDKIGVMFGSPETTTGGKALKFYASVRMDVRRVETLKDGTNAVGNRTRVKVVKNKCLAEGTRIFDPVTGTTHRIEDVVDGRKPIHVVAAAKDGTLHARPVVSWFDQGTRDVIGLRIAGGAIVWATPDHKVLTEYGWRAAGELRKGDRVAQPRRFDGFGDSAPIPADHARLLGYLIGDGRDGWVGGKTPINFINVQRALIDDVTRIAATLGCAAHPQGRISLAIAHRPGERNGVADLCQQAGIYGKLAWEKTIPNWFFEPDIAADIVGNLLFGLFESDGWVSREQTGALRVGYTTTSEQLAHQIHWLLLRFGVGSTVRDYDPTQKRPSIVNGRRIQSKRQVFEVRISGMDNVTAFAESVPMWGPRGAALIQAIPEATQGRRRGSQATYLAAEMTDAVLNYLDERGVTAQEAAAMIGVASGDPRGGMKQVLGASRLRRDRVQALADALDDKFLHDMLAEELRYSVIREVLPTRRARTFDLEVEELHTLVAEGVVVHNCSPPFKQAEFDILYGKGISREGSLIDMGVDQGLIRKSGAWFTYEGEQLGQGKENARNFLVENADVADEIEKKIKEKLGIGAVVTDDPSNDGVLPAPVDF

[10] = molecular target: ATP-dependent molecular chaperone HSP82 (Candida albicans (strain WO-1) (Yeast), UniProt C4YTQ8); assay: loss of DOC-induced GRE-beta-galactosidase reporter signal, dose response, Hsp90 inhibitor project, S. cerevisiae, luminescence (AID 2400); format: functional, cell-based;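 also: beta-galactosidase luminescence from glucocorticoid response element reporter as proxy for Hsp90 function; inhibitor potency where signal loss means Hsp90 inhibition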
[11] = C. albicans growth with fluconazole, confirmation, fluorescence, retest (AID 2467); format: functional, cell-based
[12] = molecular target: T4, Replicative DNA helicase DnaB (Mycobacterium tuberculosis, UniProt P9WMR3); assay: DnaB intein splicing inhibitors, dose response, biochemical, cell-free fluorescence (AID 449749); format: functional
T4 sequence (P9WMR3 whole entry): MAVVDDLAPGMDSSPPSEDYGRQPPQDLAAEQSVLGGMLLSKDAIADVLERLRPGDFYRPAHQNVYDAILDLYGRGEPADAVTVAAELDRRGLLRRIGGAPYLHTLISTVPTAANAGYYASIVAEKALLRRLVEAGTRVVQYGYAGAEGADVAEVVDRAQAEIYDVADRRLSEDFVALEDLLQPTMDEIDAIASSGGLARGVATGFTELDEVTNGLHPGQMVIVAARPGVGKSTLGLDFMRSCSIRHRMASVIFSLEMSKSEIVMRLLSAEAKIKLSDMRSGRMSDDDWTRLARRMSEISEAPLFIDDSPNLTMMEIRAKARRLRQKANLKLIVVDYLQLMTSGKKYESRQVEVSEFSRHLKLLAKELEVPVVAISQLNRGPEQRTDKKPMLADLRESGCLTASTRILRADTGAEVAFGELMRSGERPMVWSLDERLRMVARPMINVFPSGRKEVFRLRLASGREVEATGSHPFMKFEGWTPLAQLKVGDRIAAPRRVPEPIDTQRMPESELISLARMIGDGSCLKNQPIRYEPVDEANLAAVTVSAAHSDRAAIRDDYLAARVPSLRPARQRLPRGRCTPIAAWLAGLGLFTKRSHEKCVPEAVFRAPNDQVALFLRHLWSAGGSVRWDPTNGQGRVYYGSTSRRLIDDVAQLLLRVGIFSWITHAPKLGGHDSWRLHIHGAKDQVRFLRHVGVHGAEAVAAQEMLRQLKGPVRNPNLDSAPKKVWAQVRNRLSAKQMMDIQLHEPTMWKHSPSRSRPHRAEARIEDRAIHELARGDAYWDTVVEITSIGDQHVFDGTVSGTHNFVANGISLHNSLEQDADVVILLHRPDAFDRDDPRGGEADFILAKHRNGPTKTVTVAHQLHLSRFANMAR

[13] = molecular target: Peroxisome proliferator-activated receptor gamma/Nuclear receptor coactivator 3 (Homo sapiens, UniProt P37231); assay: as §1, with “3 (SRC-3)” for “2 (SRC-2)”, “1301 (Confirmation screen.), 1048 (Primary screen.)]” for “1297, 1032 ]”; format: functional
[14] = Luminescent dose response cell-based high throughput screening assay for inhibitors of the Janus kinase 2 mutant JAK2V617F. [Related pubchem assays: 1446 (Primary screen.), 1521 (Confirmation assay.), 1486 (Counter screen.)]; format: functional
[15] = molecular target: Peroxisome proliferator-activated receptor gamma/Nuclear receptor coactivator 1 (Homo sapiens, UniProt P37231); assay: as §1, with “1 (SRC-1)” for “2 (SRC-2)”, “assays (depositor defined):AID1300, AID1808, AID504735, AID631]” for “assays: 1297, 1032 ]”; format: protein assay
[16] = molecular target: DNA topoisomerase (Yersinia pestis, UniProt A0A2S9PM60); assay: Y. pestis Topo-I inhibitors, cleavage product readout, dose response, biochemical, cherry-pick (AID 588525)

Chain of ATP-dependent molecular chaperone HSP82 (C4YTQ8 whole entry): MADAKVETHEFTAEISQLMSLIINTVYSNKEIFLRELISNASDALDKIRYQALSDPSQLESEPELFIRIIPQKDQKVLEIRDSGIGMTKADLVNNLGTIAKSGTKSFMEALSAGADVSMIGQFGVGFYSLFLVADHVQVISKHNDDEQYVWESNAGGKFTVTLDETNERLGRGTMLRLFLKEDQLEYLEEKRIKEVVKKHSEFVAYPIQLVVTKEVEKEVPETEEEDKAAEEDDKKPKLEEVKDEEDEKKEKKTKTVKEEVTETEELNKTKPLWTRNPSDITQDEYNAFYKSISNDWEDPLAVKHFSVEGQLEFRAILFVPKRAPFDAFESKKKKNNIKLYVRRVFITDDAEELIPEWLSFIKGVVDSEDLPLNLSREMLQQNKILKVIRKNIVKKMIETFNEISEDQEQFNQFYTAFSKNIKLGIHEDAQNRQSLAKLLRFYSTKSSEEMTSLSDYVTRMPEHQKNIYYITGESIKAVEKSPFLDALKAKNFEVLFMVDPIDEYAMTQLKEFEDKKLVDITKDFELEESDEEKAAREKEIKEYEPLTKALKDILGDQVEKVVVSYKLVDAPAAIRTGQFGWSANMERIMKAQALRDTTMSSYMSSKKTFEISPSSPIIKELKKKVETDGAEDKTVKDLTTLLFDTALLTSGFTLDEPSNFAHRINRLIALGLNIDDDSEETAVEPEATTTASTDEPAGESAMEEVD
Chain of Peroxisome proliferator-activated receptor gamma/Nuclear receptor coactivator 1 (P37231 whole entry): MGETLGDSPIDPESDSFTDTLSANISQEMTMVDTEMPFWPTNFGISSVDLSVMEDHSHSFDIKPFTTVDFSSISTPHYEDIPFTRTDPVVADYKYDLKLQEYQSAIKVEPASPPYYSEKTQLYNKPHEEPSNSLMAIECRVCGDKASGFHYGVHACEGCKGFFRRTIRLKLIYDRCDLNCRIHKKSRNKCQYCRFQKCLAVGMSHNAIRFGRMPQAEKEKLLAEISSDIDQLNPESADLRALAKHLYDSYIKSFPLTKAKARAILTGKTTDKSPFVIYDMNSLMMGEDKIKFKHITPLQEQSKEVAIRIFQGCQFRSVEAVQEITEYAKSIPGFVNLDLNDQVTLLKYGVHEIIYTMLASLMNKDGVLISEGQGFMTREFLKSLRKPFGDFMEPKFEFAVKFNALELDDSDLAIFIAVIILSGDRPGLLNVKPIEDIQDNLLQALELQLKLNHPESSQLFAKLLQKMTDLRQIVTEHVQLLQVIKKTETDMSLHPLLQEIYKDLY
Chain of Peroxisome proliferator-activated receptor gamma/Nuclear receptor coactivator 1 (Q15788 whole entry, further chain): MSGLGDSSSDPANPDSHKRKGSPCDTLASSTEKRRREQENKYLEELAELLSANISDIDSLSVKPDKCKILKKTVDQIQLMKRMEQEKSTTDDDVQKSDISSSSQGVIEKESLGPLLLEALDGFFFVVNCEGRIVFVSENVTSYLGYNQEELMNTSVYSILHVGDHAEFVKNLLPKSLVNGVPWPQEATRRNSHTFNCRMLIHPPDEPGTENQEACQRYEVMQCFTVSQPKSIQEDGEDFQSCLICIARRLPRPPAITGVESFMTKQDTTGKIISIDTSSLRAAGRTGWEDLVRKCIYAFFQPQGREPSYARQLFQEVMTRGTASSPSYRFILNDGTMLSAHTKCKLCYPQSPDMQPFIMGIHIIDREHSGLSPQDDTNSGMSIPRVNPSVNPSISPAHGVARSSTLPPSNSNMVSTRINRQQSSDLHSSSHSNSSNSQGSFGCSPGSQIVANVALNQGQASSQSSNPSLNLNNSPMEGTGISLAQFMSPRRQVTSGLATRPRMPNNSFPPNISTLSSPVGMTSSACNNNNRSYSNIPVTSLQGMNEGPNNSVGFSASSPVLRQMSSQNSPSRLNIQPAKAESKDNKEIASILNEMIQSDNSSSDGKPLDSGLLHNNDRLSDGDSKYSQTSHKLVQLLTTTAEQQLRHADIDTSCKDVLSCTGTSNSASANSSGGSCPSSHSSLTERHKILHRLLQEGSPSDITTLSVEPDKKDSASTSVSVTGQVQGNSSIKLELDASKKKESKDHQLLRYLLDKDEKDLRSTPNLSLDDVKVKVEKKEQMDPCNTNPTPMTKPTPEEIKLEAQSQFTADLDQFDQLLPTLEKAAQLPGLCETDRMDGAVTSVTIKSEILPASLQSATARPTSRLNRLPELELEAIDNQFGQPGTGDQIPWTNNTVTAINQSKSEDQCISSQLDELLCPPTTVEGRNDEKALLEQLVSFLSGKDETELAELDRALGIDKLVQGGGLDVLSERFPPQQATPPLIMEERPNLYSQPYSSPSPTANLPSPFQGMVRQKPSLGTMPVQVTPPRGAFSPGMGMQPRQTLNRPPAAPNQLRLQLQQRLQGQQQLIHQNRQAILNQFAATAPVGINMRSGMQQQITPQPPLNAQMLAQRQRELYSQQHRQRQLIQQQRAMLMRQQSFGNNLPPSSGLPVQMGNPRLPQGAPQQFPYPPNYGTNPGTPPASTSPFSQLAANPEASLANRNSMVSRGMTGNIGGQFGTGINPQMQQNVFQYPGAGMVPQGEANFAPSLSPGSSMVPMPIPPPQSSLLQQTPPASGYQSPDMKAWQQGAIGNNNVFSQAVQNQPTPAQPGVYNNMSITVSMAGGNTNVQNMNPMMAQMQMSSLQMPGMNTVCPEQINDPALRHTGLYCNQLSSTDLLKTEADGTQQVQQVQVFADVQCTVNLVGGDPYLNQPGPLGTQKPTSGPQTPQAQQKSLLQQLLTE
Chain of Peroxisome proliferator-activated receptor gamma/Nuclear receptor coactivator 3 (P37231 whole entry): as the sequence (P37231 whole entry) above
Chain of Peroxisome proliferator-activated receptor gamma/Nuclear receptor coactivator 3 (Q9Y6Q9 whole entry, further chain): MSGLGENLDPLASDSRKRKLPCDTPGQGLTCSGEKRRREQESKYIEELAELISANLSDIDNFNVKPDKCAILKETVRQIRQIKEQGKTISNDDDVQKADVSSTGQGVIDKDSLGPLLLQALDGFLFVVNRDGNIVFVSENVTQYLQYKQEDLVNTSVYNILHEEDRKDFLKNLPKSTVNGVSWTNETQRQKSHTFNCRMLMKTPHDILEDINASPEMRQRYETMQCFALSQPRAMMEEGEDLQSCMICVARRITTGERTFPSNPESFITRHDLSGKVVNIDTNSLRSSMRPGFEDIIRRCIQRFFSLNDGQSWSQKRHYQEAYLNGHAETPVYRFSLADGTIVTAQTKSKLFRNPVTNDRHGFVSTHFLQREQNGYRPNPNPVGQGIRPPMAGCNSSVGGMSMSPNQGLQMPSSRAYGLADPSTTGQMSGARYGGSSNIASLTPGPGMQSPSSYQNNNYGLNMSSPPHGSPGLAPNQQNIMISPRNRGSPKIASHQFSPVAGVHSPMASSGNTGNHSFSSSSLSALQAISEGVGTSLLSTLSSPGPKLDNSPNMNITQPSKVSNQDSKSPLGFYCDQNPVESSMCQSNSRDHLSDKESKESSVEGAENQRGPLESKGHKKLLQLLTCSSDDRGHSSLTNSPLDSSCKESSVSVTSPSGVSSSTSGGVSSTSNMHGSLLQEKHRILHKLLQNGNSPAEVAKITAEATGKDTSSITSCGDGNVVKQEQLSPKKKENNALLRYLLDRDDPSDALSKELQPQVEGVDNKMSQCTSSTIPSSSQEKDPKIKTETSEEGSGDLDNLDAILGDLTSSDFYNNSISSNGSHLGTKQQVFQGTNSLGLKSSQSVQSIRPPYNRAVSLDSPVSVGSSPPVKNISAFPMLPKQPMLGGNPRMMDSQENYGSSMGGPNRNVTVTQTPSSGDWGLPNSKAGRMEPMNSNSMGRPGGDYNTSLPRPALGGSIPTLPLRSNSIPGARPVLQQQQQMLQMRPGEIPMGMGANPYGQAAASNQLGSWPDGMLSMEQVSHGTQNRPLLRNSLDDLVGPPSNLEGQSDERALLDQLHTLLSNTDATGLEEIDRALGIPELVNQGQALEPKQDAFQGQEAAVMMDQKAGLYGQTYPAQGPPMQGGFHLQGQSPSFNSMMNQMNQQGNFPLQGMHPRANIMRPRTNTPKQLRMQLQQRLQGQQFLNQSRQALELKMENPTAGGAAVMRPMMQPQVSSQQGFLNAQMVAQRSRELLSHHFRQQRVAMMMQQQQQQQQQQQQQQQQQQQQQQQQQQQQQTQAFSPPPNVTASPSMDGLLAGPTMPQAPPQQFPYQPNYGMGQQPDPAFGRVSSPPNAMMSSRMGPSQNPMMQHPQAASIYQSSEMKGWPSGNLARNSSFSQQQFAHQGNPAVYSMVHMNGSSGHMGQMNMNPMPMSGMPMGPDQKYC

| SMILES | EC50 [1] | EC50 [2] | EC50 [3] | CC50 [4] | AC50 [5] | IC50 [6] | EC50 [7] | EC50 [8] | EC50 [9] | EC50 [10] | EC50 [11] | AC50 [12] | EC50 [13] | IC50 [14] | EC50 [15] | AC50 [16] |
| --- | --- | --- | --- | --- | --- | --- | --- | --- | --- | --- | --- | --- | --- | --- | --- | --- |
| [O-][N+]1=c2ccc(Nc3ccccc3)cc2=NC12CCCCC2 | > 180 µM (inactive) | 1.62 µM (active) | 1.9 µM (active) | 18.6 µM (active) | 5.64 µM (active) | 48.2 µM (active) | 146 µM (active) | 14.4 µM (not active) | 4.37 µM (active) | > 150 µM (inactive) | 1.46 µM (active) | > 380 µM (inactive) | > 79.4 µM (not active) | 0.637 µM (active) | 14.9 µM (inactive) | – |
| Cc1cc(OCCn2nc(C(=O)O)c3ccccc3c2=O)ccc1C(C)C | – | – | – | – | – | – | – | – | – | – | – | – | – | – | – | 3.68 µM (active) |

— ChEMBL document CHEMBL1201862, “PubChem BioAssay data set” (2004)
